Laboratory results from patent US8022055B2, “Betulinic acid derivatives” (Dabur Pharma Limited, priority 2005, dated 2011).
Converted amounts (≈) assume the structure as drawn. Like-named read-outs stand apart in the source and are kept apart here.

Columns and labels:
NIH 3T3 cells = assay: NIH3T3 cytotoxicity test (72 h MTT assay); type: cell-based; details: NIH3T3, 72 hours
Experimental: The cytotoxic effect of chemicals upon NIH 3T3 cells in culture is measured by cell metabolism determination using the previously described MIT assay. Healthy NIH 3T3 cells (an established cell-line), when maintained in culture continuously divide and multiply over time. The basis of this test is that a cytotoxic chemical (regardless of site or mechanism of action) will interfere with this process and, thus, result in a reduction of the growth rate as reflected by cell number. The degree of inhibition of growth, related to the concentration of the test compound, provides an indication of toxicity.
The NIH 3T3 cells are maintained in culture and exposed to test compounds over a range of concentrations and the number of viable cells determined after 72 hours exposure by MIT assay. The number of cells in the presence of test chemicals are compared to that observed in control cultures and the percent inhibition of growth calculated. The IC50 concentration (i.e. the concentration producing 50% inhibition of growth) is determined and expressed as μg/ml. A ratio of IC50 of NIH 3T3 cells to tumor cells is an indicator of predicted toxicity of the molecule and is represented as “Safety Index”. The higher the value, the better is the predicted safety of the molecule.

PA1 = assay: three day MTT cytotoxicity assay, PA1; type: cell-based, human; details: for IC50 for cell lines PA1: PA1, 72 hours; for IC50: Homo sapiens, PA-1, PA1, 72 hours, read-out: IC50 for cell lines PA1
Experimental: (§1) Briefly, a three day MTT cytotoxicity assay was performed, which is based on the principle of uptake of MTT (3-(4,5-dimethylthiazol-2-yl)-2,5-diphenyl tetrazolium bromide), a tetrazolium salt, by the metabolically active cells where it is metabolized by active mitochondria into a blue colored formazan product that is read spectrophotometrically. MIT was dissolved in phosphate buffered saline with a pH of 7.4 to obtain an MIT concentration of 5 mg/ml; the resulting mixture was filtered through a 0.22-micron filter to sterilize and remove a small amount of insoluble residue. For each type of tumor cell, 10,000 to 15,000 cells were seeded in a 96-well culture plate and incubated with the individual betulinic acid derivatives in a CO2 incubator for a total of 72 hours. Control cells not treated with the betulinic acid derivatives were similarly incubated. The assay was terminated by adding 100 μg (20 μl) of MIT to each well then incubating for additional one hour, and finally adding 50 μl of 10% SDS-0.01N HCl to each well to lyse the cells and dissolve formazan. After incubating for one hour, the plate was read spectrophotometrically at 540 nm and the percentage of cytotoxicity calculated using the following formula: Cytotoxicity percentage=100×[1−(X/R1)], where X=(absorbance of treated sample at 540 nm)−(absorbance of blank at 540 nm) R1=absorbance of control sample at 540 nm. The IC50 Values of the cytotoxicity defined as the concentration at which 50% of the cells are killed in vitro was calculated for each cell line treated with each of the betulinic acid derivatives.

DU145 = assay: three day MTT cytotoxicity assay, DU145; type: cell-based, human; details: for IC50 for cell lines DU145: DU145, 72 hours; for IC50: Homo sapiens, DU-145, DU145, 72 hours, read-out: IC50 for cell lines DU145
Experimental: (§2) A number of compounds listed in Table-3 were tested for cytotoxicity against prostate, lung, laryngeal, pancreas, breast, colon and ovarian cancer, leukemia and lymphoma, human tumor cell lines. Briefly, a three day MTT cytotoxicity assay was performed, which is based on the principle of uptake of MTT (3-(4,5-dimethylthiazol-2-yl)-2,5-diphenyl tetrazolium bromide), a tetrazolium salt, by the metabolically active cells where it is metabolized by active mitochondria into a blue colored formazan product that is read spectrophotometrically. MIT was dissolved in phosphate buffered saline with a pH of 7.4 to obtain an MIT concentration of 5 mg/ml; the resulting mixture was filtered through a 0.22-micron filter to sterilize and remove a small amount of insoluble residue. For each type of tumor cell, 10,000 to 15,000 cells were seeded in a 96-well culture plate and incubated with the individual betulinic acid derivatives in a CO2 incubator for a total of 72 hours. Control cells not treated with the betulinic acid derivatives were similarly incubated. The assay was terminated by adding 100 μg (20 μl) of MIT to each well then incubating for additional one hour, and finally adding 50 μl of 10% SDS-0.01N HCl to each well to lyse the cells and dissolve formazan. After incubating for one hour, the plate was read spectrophotometrically at 540 nm and the percentage of cytotoxicity calculated using the following formula: Cytotoxicity percentage=100×[1−(X/R1)], where X=(absorbance of treated sample at 540 nm)−(absorbance of blank at 540 nm) R1=absorbance of control sample at 540 nm. The IC50 Values of the cytotoxicity defined as the concentration at which 50% of the cells are killed in vitro was calculated for each cell line treated with each of the betulinic acid derivatives.

SW620 = assay: three day MTT cytotoxicity assay, SW620; type: cell-based, human; details: for IC50 for cell lines SW620: SW620, 72 hours; for IC50: Homo sapiens, SW-620, SW620, 72 hours, read-out: IC50 for cell lines SW620
Experimental: as §1

HBL100 = assay: three day MTT cytotoxicity assay, HBL100; type: cell-based, human; details: for IC50 for cell lines HBL100 / IC50: HBL100, 72 hours, MTT; for IC50: Homo sapiens, HBL-100, read-out: IC50 for cell lines HBL100
Experimental: as §2

Miapaca = assay: three day MTT cytotoxicity assay, Miapaca; type: cell-based, human; details: for IC50 for cell lines Miapaca / IC50: 72 hours, MTT, Miapaca; for IC50: Homo sapiens, MIA PaCa-2, read-out: IC50 for cell lines Miapaca
Experimental: as §2

A549 = assay: three day MTT cytotoxicity assay, A549; type: cell-based, human; details: for IC50 for cell lines A549 / IC50: A549, 72 hours, MTT; for IC50: Homo sapiens, read-out: IC50 for cell lines A549
Experimental: as §2

K562 = assay: three day MTT cytotoxicity assay, K562; type: cell-based, human; details: for IC50 for cell lines K562: K562, 72 hours, MTT
Experimental: as §2

[1] = Pharmacokinetic study after intravenous injection; details: rat
Experimental: (§3) Blood samples were taken at various times after administration and plasma was prepared and frozen at −20° C. until analysis. The plasma sample were analyzed by a suitable HPLC method using a C-18 column. The pH of water is adjusted to 3.0 with phosphoric acid. Start the gradient with 70% acetonitrile for 5 minutes and increase the concentration up to 100% within 25 minutes followed by hold at 100% for 10 minutes. It is thus possible to construct the curve showing the plasma concentration as a function of time and to determine different pharmacokinetic parameter of compound studied.

[2] = test system: various cancer cell lines; assay: in vitro cytotoxicity / anticancer activity, overall statement
normal cells = details: literature study; cited from earlier work
[3] = rat, in vivo, iv, 10 mg/kg
Experimental: as §3

[4] = test system: various cancer cell lines
tumor = details: murine xenograft models; cited from earlier work
in vivo = details: male, Wistar, rat, iv, 10 mg/kg
Experimental: as §3

[5] = male, Wistar, plasma, iv, 10 mg/kg

Row | Structure (SMILES) | IC50 for cell lines NIH3T3 (NIH 3T3 cells) | IC50 for cell lines PA1 (PA1) | IC50 for cell lines DU145 (DU145) | IC50 for cell lines SW620 (SW620) | IC50 for cell lines HBL100 (HBL100) | IC50 for cell lines Miapaca (Miapaca) | IC50 for cell lines A549 (A549) | IC50 for cell lines K562 (K562) | IC50 (PA1) | IC50 (DU145) | IC50 (SW620) | IC50 (HBL100) | IC50 (Miapaca) | IC50 (A549) | other results
1 | C=C(C)[C@@H]1CC[C@]2(C(=O)O)CC[C@]3(C)C(CCC4[C@@]5(C)Cc6c([nH]c7ccc(Cl)cc67)C(C)(C)C5CC[C@]43C)C12 (some centres unmarked) [Compound 5, 5′-Chloro-2,3-didehydroindolo[2′,′:2,3]betulinic acid] | 4.6 ± 0.14 µg/mL | 2.5 µg/mL | 4.9 µg/mL | 2.7 µg/mL | 11.75 ± 1.65 µg/mL | 2.44 ± 0.26 µg/mL | 7.14 ± 0.5 µg/mL | 9.61 ± 0.78 µg/mL |  |  |  |  |  |  | Specific Index (SI) for cell lines HBL100 (HBL100; ratio of IC50 of NIH 3T3 cells to HBL100): 0.391; Specific Index (SI) for cell lines Miapaca (Miapaca; ratio of IC50 of NIH 3T3 cells to Miapaca): 1.885; Specific Index (SI) for cell lines A549 (A549; ratio of IC50 of NIH 3T3 cells to A549): 0.644; Specific Index (SI) for cell lines K562 (K562; ratio of IC50 of NIH 3T3 cells to K562): 0.478; elimination (Kel) as compared to betulinic acid ([1]; 10 mg/kg intravenous): slower elimination; pharmacokinetic properties (in words) ([1]; 10 mg/kg intravenous): significantly superior pharmacokinetic properties over betulinic acid; plasma concentrations as compared to betulinic acid (II) ([1]; 10 mg/kg intravenous): quite high and long lasting; systemic exposure (AUC0-∞) as compared to betulinic acid ([1]; 10 mg/kg intravenous): better systemic exposure; AUC(0-e) ([1]; 10 mg/kg intravenous, plasma): 78400 ng·h/mL; C0 ([1]; 10 mg/kg intravenous, plasma): 132.2 µg/mL; T1/2 ([1]; 10 mg/kg intravenous, plasma): 6.7 h; Vd ([1]; 10 mg/kg intravenous, plasma): 0.23 mL; in vitro cytotoxicity / anticancer activity (in words) [2]: significantly improved anticancer activity over betulinic acid
2 | C=C(C)[C@@H]1CC[C@]2(C(=O)O)CC[C@]3(C)[C@H](CC[C@@H]4[C@@]5(C)CC[C@H](O)C(C)(C)[C@@H]5CC[C@]43C)[C@@H]12 [Betulinic Acid (II), 33-hydroxy-lup-20(29)-en-28-oic acid, reference compound] |  |  |  |  |  |  |  |  | 11.5 µg/mL (≈ 25.2 µM) | > 20 µg/mL | 13.3 µg/mL (≈ 29 µM) | 5.02 µg/mL (≈ 11 µM) | > 20 µg/mL | 3.01 µg/mL (≈ 6.59 µM) | toxicity against normal cells (normal cells): minimal toxicity against normal cells; AUC [1, 5]: 13900 ng·h/mL; AUC(0-t) [1, 5]: 10600 ng·h/mL; C0 [1, 5]: 36 µg/mL; Vd [1, 5]: 41.6 mL; half-life [1, 5]: 0.265 h; Kel ([1]; 10 mg/kg intravenous, plasma): 2.60 h⁻¹
3 | C=C(C)[C@@H]1CC[C@]2(C(=O)OCc3ccccc3)CC[C@]3(C)C(CCC4[C@@]5(C)Cc6c([nH]c7ccc(Cl)cc67)C(C)(C)C5CC[C@]43C)C12 (some centres unmarked) [Compound 19, 28-O-Benzyl-5′-chloro-2,3-didehydroindolo[2′,′:2,3]betulinate] | >20 µg/mL | >20 µg/mL | >20 µg/mL | >20 µg/mL | >20 µg/mL | >20 µg/mL | >20 µg/mL | >20 µg/mL |  |  |  |  |  |  | 
4 | CC(C)[C@@H]1CC[C@]2(C(=O)O)CC[C@]3(C)C(CCC4[C@@]5(C)CC/C(=N/Oc6ccc([N+](=O)[O-])cc6)C(C)(C)C5CC[C@]43C)C12 (some centres unmarked) [MJ1098-RS (III)] |  |  |  |  |  |  |  |  | 3.63 µg/mL (≈ 6.12 µM) | 0.82 µg/mL (≈ 1.38 µM) | 3.4 µg/mL (≈ 5.74 µM) | 2.82 µg/mL (≈ 4.76 µM) | 3.17 µg/mL (≈ 5.35 µM) | 1.18 µg/mL (≈ 1.98 µM) | elimination (Kel) as compared to betulinic acid [3]: slower elimination; plasma concentrations as compared to betulinic acid (II) [3]: quite high and long lasting; systemic exposure (AUC0-∞) as compared to betulinic acid [3]: better systemic exposure; in vitro cytotoxicity / anticancer activity (in words) [4]: good in vitro cytotoxicity; tumor reduction (tumor): shows tumor reduction; AUC (in vivo): 43600 ng·h/mL; C0 (in vivo): 101 µg/mL; Vd (in vivo): 0.0006 L; half-life (in vivo): 9.9 h
5 | C=C(C)[C@@H]1CC[C@]2(C(=O)O)CC[C@]3(C)C(CCC4[C@@]5(C)Cc6c([nH]c7cc(Cl)cc(Cl)c67)C(C)(C)C5CC[C@]43C)C12 (some centres unmarked) [Compound 31, 2,3-Didehydro-4′,6′-dichloroindolo[2′,3′:2,3]betulinic acid] | 4.10 µg/mL | >20 µg/mL | >20 µg/mL | >20 µg/mL | >20 µg/mL | >20 µg/mL | 5.5 µg/mL | >20 µg/mL |  |  |  |  |  |  | 
